Values quoted from earlier work, collected in patent US11478494B2, “Methods and substances for prevention and treatment of neurodegenerative diseases” (Locus IP Company, LLC, priority 2017, dated 2022).
*1 amine or outer side, *2 acyl side, *3 side chain or, on linkers, in order; H or OH if unused. Where a SMILES comes first, the peptide text is derived from it. Bridges are numbered along the chain shown (N, C = ends). [ ]: non-standard residue; d: D form. X1 = CC(C)CCCCCCCCC[C@H](CC(=O)[*:1])O[*:2]

What was measured:
[1] = oral administration
[2] = surfactin administration

Row | Compound | oral dose administered without toxicity [1] | concentration without any significant toxic effects [2] [µM]
1 | sophorolipid [SLP] | ≤ 5 grams/kg of body weight | 
2 | CC(C)CCCCCCCCC[C@@H]1CC(=O)N[C@@H](CCC(=O)O)C(=O)N[C@@H](CC(C)C)C(=O)N[C@H](CC(C)C)C(=O)N[C@@H](C(C)C)C(=O)N[C@@H](CC(=O)O)C(=O)N[C@H](CC(C)C)C(=O)N[C@@H](CC(C)C)C(=O)O1 [surfactin] (EL[dL]VD[dL]L; linker N-C via X1) |  | ≤ 25
